≈ marks a conversion by molar mass, not a printed value.
What was measured:
Staphylococcus aureus [1] = assay: microbe, parasite or virus in culture; conditions: ATCC 6538
Staphylococcus aureus [2] = assay: Bactericidal activity against methicillin-resistant Staphylococcus aureus USA400 NRS123 assessed as log reduction in viable bacteria count at 5 times MIC incubated for 2 hrs in soy broth followed by incubation for 18 to 20 hrs on agar plate by time kill assay; format: functional; conditions: time 20-22 hrs
[3] = Half life in human liver microsomes at 0.1 uM in presence of NADPH by LC/MS/MS analysis
Staphylococcus aureus [4] = assay: microbe, parasite or virus in culture; conditions: NRS119
Staphylococcus aureus [5] = assay: Ratio of MIC for methicillin-resistant Staphylococcus aureus USA400 NRS123 measured after 13th passage to MIC for methicillin-resistant Staphylococcus aureus USA400 NRS123 measured after 18 to 20 hrs by broth microdilution assay; format: functional
Staphylococcus aureus [6] = assay: Ratio of MBC to MIC against methicillin-sensitive Staphylococcus aureus NRS107 assessed as inhibition of bacterial growth measured after 18 to 20 hrs by CLSI protocol based broth microdilution method; format: functional; conditions: time 18-20 hrs
[7] = Half life in human liver microsomes at 0.1 uM in absence of NADPH by LC/MS/MS analysis; format: ADME, Microsome
Enterococcus faecium = assay: Ratio of MBC to MIC for vancomycin-resistant Enterococcus faecium ATCC 700221 assessed as inhibition of bacterial growth measured after 18 to 20 hrs by CLSI protocol based broth microdilution method; format: functional; conditions: time 18-20 hrs
[8] = Cytotoxicity against human Caco-2 cells assessed as cell viability at 64 ug/ml incubated for 2 hrs by MTS assay relative to control; format: cell-based; conditions: at 64 µg/mL, read-out: Activity
[9] = Selectivity index, ratio of maximum non-toxic concentration for human Caco-2 cells to MIC for methicillin-resistant Staphylococcus aureus USA700 NRS386; format: toxicity
[10] = Selectivity index, ratio of maximum non-toxic concentration for human Caco-2 cells to MIC for methicillin-resistant Staphylococcus aureus NRS119; format: toxicity
Staphylococcus aureus [11] = assay: Antibacterial activity against methicillin-resistant Staphylococcus aureus USA400 NRS123 infected in mouse J774 cells assessed as reduction in intracellular bacterial burden at 4 x MIC measured after 24 hrs relative to control; format: functional
Enterococcus faecalis [12] = assay: Ratio of MBC to MIC for vancomycin-resistant Enterococcus faecalis ATCC 51299 assessed as inhibition of bacterial growth measured after 18 to 20 hrs by CLSI protocol based broth microdilution method; format: functional; conditions: time 18-20 hrs
[13] = Selectivity index, ratio of maximum non-toxic concentration for human Caco-2 cells to MIC for methicillin-resistant Staphylococcus aureus USA400 NRS123; format: toxicity
Staphylococcus aureus [14] = assay: microbe, parasite or virus in culture; conditions: NRS107
Enterococcus faecalis [15] = assay: microbe, parasite or virus in culture; conditions: ATCC 51299
Staphylococcus aureus [16] = assay: Antibacterial activity against methicillin-resistant Staphylococcus aureus USA300 NRS384 assessed as inhibition of bacterial growth measured after 18 to 20 hrs by broth microdilution method; format: functional; conditions: time 18-20 hrs
physchem = conditions: phosphate-buffered saline, pH 7.4
Staphylococcus aureus [17] = assay: Antibacterial activity against vancomycin-resistant Staphylococcus aureus 10 assessed as inhibition of bacterial growth measured after 18 to 20 hrs by CLSI protocol based broth microdilution method; format: functional; conditions: time 18-20 hrs
in vitro = conditions: human, liver microsomes
Staphylococcus aureus [18] = assay: microbe, parasite or virus in culture; conditions: USA400 NRS123
Streptococcus pneumoniae [19] = assay: Ratio of MBC to MIC for cephalosporin-resistant Streptococcus pneumoniae ATCC 51916 assessed as inhibition of bacterial growth measured after 18 to 20 hrs by CLSI protocol based broth microdilution method; format: functional; conditions: time 18-20 hrs
[20] = Selectivity index, ratio of maximum non-toxic concentration for human Caco-2 cells to MIC for methicillin-resistant Staphylococcus aureus USA300 NRS384; format: toxicity
J774 = assay: Cytotoxicity against mouse J774 cells assessed as cell viability at 32 ug/ml incubated for 2 hrs by MTS assay; format: cell-based; conditions: j774, 2 h, dose 32 µg/ml
Staphylococcus aureus [21] = assay: Antibacterial activity against methicillin-resistant Staphylococcus aureus USA400 NRS123 infected in mouse J774 cells assessed as log reduction in intracellular bacterial burden at 4 x MIC measured after 24 hrs; format: functional
Streptococcus pneumoniae [22] = assay: Antibacterial activity against cephalosporin-resistant Streptococcus pneumoniae ATCC 51916 assessed as inhibition of bacterial growth measured after 18 to 20 hrs by CLSI protocol based broth microdilution method; format: functional; conditions: time 18-20 hrs
Listeria monocytogenes = assay: Ratio of MBC to MIC for Listeria monocytogenes ATCC 19111 assessed as inhibition of bacterial growth measured after 18 to 20 hrs by CLSI protocol based broth microdilution method; format: functional; conditions: time 18-20 hrs
Staphylococcus aureus [23] = assay: Antibacterial activity against methicillin-resistant Staphylococcus aureus USA400 NRS123 infected in mouse J774 cells assessed as log reduction in intracellular bacterial burden at 2 x MIC measured after 24 hrs; format: functional
Staphylococcus aureus [24] = assay: Bactericidal activity against methicillin-resistant Staphylococcus aureus USA400 NRS123 assessed as eradication of bacterial count at 5 times MIC incubated for 8 hrs in soy broth followed by incubation for 18 to 20 hrs on agar plate by time kill assay; format: functional; conditions: time 26-28 hrs
[25] = Intrinsic clearance in human liver microsomes at 0.1 uM in absence of NADPH measured upto 60 mins by LC/MS/MS analysis; format: ADME, Microsome; conditions: read-out: CLH
Escherichia coli = assay: Antibacterial activity against wild type Escherichia coli BW25113 assessed as inhibition of bacterial growth measured after 18 to 20 hrs by broth microdilution method; format: functional; conditions: time 18-20 hrs
Staphylococcus aureus [26] = assay: Antibacterial activity against methicillin-resistant Staphylococcus aureus USA400 NRS123 infected in mouse J774 cells assessed as reduction in intracellular bacterial burden at 2 x MIC measured after 24 hrs relative to control; format: functional
Streptococcus pneumoniae [27] = assay: Ratio of MBC to MIC for methicillin-resistant Streptococcus pneumoniae ATCC 700677 assessed as inhibition of bacterial growth measured after 18 to 20 hrs by CLSI protocol based broth microdilution method; format: functional; conditions: time 18-20 hrs
[28] = test system: Staphylococcus epidermidis; assay: Ratio of MBC to MIC for methicillin-resistant Staphylococcus epidermidis NRS101 assessed as inhibition of bacterial growth measured after 18 to 20 hrs by CLSI protocol based broth microdilution method; format: functional; conditions: time 18-20 hrs
Staphylococcus aureus [29] = assay: microbe, parasite or virus in culture; conditions: USA700 NRS386
[30] = Selectivity index, ratio of maximum non-toxic concentration for human Caco-2 cells to MIC for methicillin-resistant Staphylococcus aureus USA500 NRS385; format: toxicity

C/C(=N\NC(=N)N)c1ccc(Nc2nc(-c3ccc(C)cc3)cs2)cc1
MBC (Staphylococcus aureus [1]): 4 µg/mL (≈ 11 µM)
MIC (Staphylococcus aureus [1]): 2 µg/mL (≈ 5.49 µM)
Activity (Staphylococcus aureus [2]): 3 log10CFU/ml
half-life at 0.1 µM [3]: 1.96 h
MBC (Staphylococcus aureus [4]): 4 µg/mL (≈ 11 µM)
MIC (Staphylococcus aureus [4]): 2 µg/mL (≈ 5.49 µM)
Ratio (Staphylococcus aureus [5]): 1
Ratio (Staphylococcus aureus [6]): 1
half-life at 0.1 µM [7]: 4.23 h
Ratio (Enterococcus faecium): 1
viability at 2 h, 64 ug/ml [8]: 100%
selectivity ratio [9]: 16
selectivity ratio [10]: 16
inhibition (INH) (Staphylococcus aureus [11]): 99%
Ratio (Enterococcus faecalis [12]): 1
selectivity ratio [13]: 16
MBC (Staphylococcus aureus [14]): 2 µg/mL (≈ 5.49 µM)
MIC (Staphylococcus aureus [14]): 2 µg/mL (≈ 5.49 µM)
MBC (Enterococcus faecalis [15]): 4 µg/mL (≈ 11 µM)
MIC (Enterococcus faecalis [15]): 2 µg/mL (≈ 5.49 µM)
MIC (Staphylococcus aureus [16]): 2 µg/mL (≈ 5.49 µM)
solubility kinetic at 2 h (physchem): 26.7 µM (≈ 9.73 µg/mL)
MBC (Staphylococcus aureus [17]): 2 µg/mL (≈ 5.49 µM)
MIC (Staphylococcus aureus [17]): 2 µg/mL (≈ 5.49 µM)
microsomal CLint at 1 h, 0.1 µM (in vitro): 58.9 µL/min/mg
MBC (Staphylococcus aureus [18]): 2 µg/mL (≈ 5.49 µM)
MIC (Staphylococcus aureus [18]): 2 µg/mL (≈ 5.49 µM)
Ratio (Streptococcus pneumoniae [19]): 1
selectivity ratio [20]: 16
Activity (J774): Non-Toxic
Activity (Staphylococcus aureus [21]): 2.49 log10CFU/ml
MBC (Streptococcus pneumoniae [22]): 4 µg/mL (≈ 11 µM)
MIC (Streptococcus pneumoniae [22]): 2 µg/mL (≈ 5.49 µM)
Ratio (Listeria monocytogenes): 1
Activity (Staphylococcus aureus [23]): 1.19 log10CFU/ml
Activity (Staphylococcus aureus [24]): 100%
microsomal CLint at 0.1 µM [25]: 27.3 µL/min/mg
MIC (Escherichia coli): 16 µg/mL (≈ 43.9 µM)
inhibition (INH) (Staphylococcus aureus [26]): 93%
Ratio (Streptococcus pneumoniae [27]): 1
Ratio [28]: 1
MBC (Staphylococcus aureus [29]): 2 µg/mL (≈ 5.49 µM)
MIC (Staphylococcus aureus [29]): 2 µg/mL (≈ 5.49 µM)
selectivity ratio [30]: 16

— ChEMBL document CHEMBL4706519, “Evaluation of N-phenyl-2-aminothiazoles for treatment of multi-drug resistant and intracellular Staphylococcus aureus infections” (Eur J Med Chem, 2020)
